Reference: patent US20240197680A1, “VORUCICLIB DOSING REGIMENS AND METHODS OF TREATMENT INCLUDING THE SAME” (MEI Pharma, Inc., priority 2021, published 2024)

Assays:
[1] = PK of voruciclib, 2 weeks of daily dosing followed by 1 week without dosing in a 21-day cycle (Table 1); assay type: in vivo, human; conditions: mean
[2] = PK of voruciclib, daily dosing continuously (Table 2); assay type: in vivo, human; conditions: mean; for Accumulation Ratio (AUC0-t): Day 15/Day 1
clinical = conditions: human, in vivo
Excerpt: Voruciclib half-life is designated as t1/2 in the tables (expressed in hours). […] There is interpatient variability, explaining the outlier values.

Solid Tumors [3] = assay: Monotherapy Phase 1 study in solid tumors, 2 weeks on/1 week off schedule; assay type: in vivo, human; conditions: 29 pts
Solid Tumors [4] = assay: Monotherapy Phase 1 study in solid tumors, daily continuously schedule; assay type: in vivo, human
[5] = Monotherapy Phase 1 studies in solid tumors: safety profile; assay type: in vivo, human; conditions: Phase 1 monotherapy
c-MYC expression = assay: Gene biomarkers in Phase 1 daily dosing study: c-MYC expression in solid tumors; assay type: in vivo, human
[6] = system: Relapsed/Refractory B-cell malignancies; Relapsed/Refractory AML; assay type: in vivo, human
Description: Study population: Relapsed/Refractory B-cell malignancies; Relapsed/Refractory AML; Dose escalation with standard 3+3 design.
Endpoints: Safety and tolerability, Pharmacokinetics, Biologic correlative studies (BH3 profiling, MCL-1 expression, molecular mutations analysis), Response rates.
Voruciclib single agent dose escalation: 50 mg>100 mg>150 mg>200 mg.
Differentiation syndrome seen in 5 pts (50%) (Increased WBC without increased in blasts, bone pain, pulmonary symptoms; Response to corticosteroids).

[7] = system: Venetoclax Sensitive and Resistant Cell Lines; assay: Synergy with venetoclax in cell lines; assay type: cell-based; conditions: Ven Sensitive and Ven Resistant cell lines
Excerpt: FIG. 4A: Ven Sensitive; FIG. 4B: Ven Resistant.

Gelling in aqueous media = assay type: physicochemical
Description: Voruciclib can form a gel when dissolved in various media, depending on the other chemicals present. […] In general, voruciclib was more prone to gel at suspension concentrations >5 mg/mL and solubilities >0.5 mg/mL.

[8] = system: HCT-116 CRC cell xenograft; conditions: SCID, mouse, in vivo, po, 100 mg/kg
Description: Animals were randomized into 2 groups when tumors reached 100 mm diameter. Group A assigned single dosing. […] Drug concentration was measured in tumor and plasma after last dose at the following time points: 0, 4, 8, 24, 48, 72 hrs. […] Concentration of voruciclib in plasma is in units of μg/ml and in μg/g for tumors.

## CN1CC[C@@H](c2c(O)cc(O)c3c(=O)cc(-c4ccc(C(F)(F)F)cc4Cl)oc23)[C@@H]1CO [Voruciclib, (+)-trans-2-(2-chloro-4-trifluoromethylphenyl)-5,7-dihydroxy-8-(2-hydroxymethyl-1-methylpyrrolidin-3-yl)-chromen-4-one]
[1]; Day 1, 600 mg
  t½: 32.544 h
[1]; Day 13, 300 mg
  AUC0-∞: 59.33178 µg·h/mL
  t½: 16.166 h
[1]; Day 13, 850 mg
  t½: 22.380 h
[2]; Day 1, 75 mg
  t½: 21.776 h
[2]; Day 1, 150 mg
  AUC0-∞: 15.59289 µg·h/mL
[2]; Day 1, 250 mg
  AUC0-∞: 16.383699 µg·h/mL
  Cmax: 0.471955 µg/mL
[2]; Day 1, 350 mg
  AUC0-24: 10.388095 µg·h/mL
  CL/F: 4.224 L/h
[2]; Day 1, 500 mg
  AUC0-24: 16.370472 µg·h/mL
  AUC0-t: 16.370472 µg·h/mL
  CL/F: 2.107 L/h
[2]; 75 mg
  Accumulation Ratio (AUC0-t): 2.634
[2]; 150 mg
  Accumulation Ratio (AUC0-t): 3.637
[2]; 250 mg
  Accumulation Ratio (AUC0-t): 3.090
[2]; 350 mg
  Accumulation Ratio (AUC0-t): 2.767
[2]; 500 mg
  Accumulation Ratio (AUC0-t): 2.577
[2]; Day 15, 75 mg
  AUC0-∞: 27.200362 µg·h/mL
[2]; Day 15, 150 mg
  AUC0-24: 16.642661 µg·h/mL
  AUC0-t: 16.642661 µg·h/mL
  AUC0-∞: 164.07325 µg·h/mL
  t½: 131.733 h
[2]; Day 15, 250 mg
  Cmax: 1.047832 µg/mL
  t½: 38.750 h
[2]; Day 15, 350 mg
  AUC0-∞: 164.113625 µg·h/mL
  CL/F: 1.607 L/h
[2]; Day 15, 500 mg
  AUC0-24: 40.465337 µg·h/mL
  AUC0-t: 40.465337 µg·h/mL
  AUC0-∞: 108.301704 µg·h/mL
  CL/F: 1.031 L/h
clinical
  additional time to clear from the tissue after it clears the plasma: 3 days
  half-life: 120 to 240 h
Solid Tumors [3]
  PR (number of patients): 1
Solid Tumors [4]
  duration of SD, median: 15 weeks
[5]
  most common AEs: involved GI tract
  myelosuppression: no evidence of myelosuppression
c-MYC expression
  patients with decreased c-MYC expression / patients tested: 17/25
[6]; AML patients
  Differentiation syndrome (number of pts): 5
  Differentiation syndrome (share of pts): 50%
[6]; human, in vivo
  Cmax and AUC dose dependence: Dose proportional
  volume of distribution: High
[6]; in vivo
  GI toxicity or neutropenia: No GI toxicity or neutropenia
[7]
  synergy with Venetoclax: Synergizes
Gelling in aqueous media
  solubility at which more prone to gel: > 0.5 mg/mL
  suspension concentration at which more prone to gel: > 5 mg/mL
Gelling in aqueous media; pH 1.6 (FaSSGF)
  Gelling: Gelling was observed
Gelling in aqueous media; pH 6.5 (FaSSIF)
  Gelling: Gelling was observed
[8]
  level in tumor at 8 hours compared to 24 hours post dosing: > 5 fold
